# Patent US4536578A, “1-[3-(6-Fluoro-1,2-benzisoxazol-3-yl)propyl]-4-(substituted)piperazines” (Hoechst-Roussel Pharmaceuticals Inc., priority 1982, dated 1985)
# Counter-ions that a name gives are not always drawn. Like-named read-outs stand apart in the source and are kept apart here.
# Experiments:
# [1] = tested on: phenyl-para-quinone induced writhing; assay: phenyl-para-quinone writhing assay in mice (analgesia); assay type: in vivo; settings: Mus musculus, sc, read-out: Analgesic Activity ED50 (dose at which 50% of the phenyl-para-quinone induced writhing is inhibited)
# Description: Exptl. Biol. Med., 95, 729 (1957)]. Presented in Table I is the analgesic effect of some of the compounds of the invention, expressed as the subcutaneous dose at which 50% of the phenyl-para-quinone induced writhing is inhibited in the animals, i.e., the ED50.
# [2] = tested on: apomorphine-induced climbing; assay: climbing mice assay (apomorphine-induced climbing); assay type: in vivo; settings: intraperitoneal 30 min before apomorphine 1.5 mg/kg s.c.
# Protocol: The subject CK-1 male mice (23-27 grams) are group-housed under standard laboratory conditions. The mice are individually placed in wire mesh stick cages (4"×4" by 10") and are allowed one hour for adaptation and exploration of the new environment.
# For evaluation of climbing, 3 readings are taken at 10, 20 and 30 minutes after apomorphine administration according to the following scale:
# Mice consistently climbing before the injection of apormorphine will be discarded.
# With full-developed apomorphine climbing, the animals are hanging onto the cage walls, rather motionless, over longer periods of time. By contrast, climbs due to mere motor stimulation usually only last a few seconds.
# The climbing scores are individually totaled (maximal score: 6 per mouse over 3 readings) and the total score of the control group (vehicle intraperitoneally--apomorphine subcutaneously) is set to 100%.
# [3] = tested on: conditioned avoidance; assay: Sidman Avoidance Paradigm in squirrel monkeys; assay type: in vivo, squirrel monkeys (Saimiri sciureus); settings: Primates
# Description: The subjects are male squirrel monkeys (Saimiri sciureus). They are housed in individual home cages in the animal quarters for at least six weeks prior to training. When they are not in the test chambers, the subjects are maintained in their home cages with water available ad libitum and food available twice daily.
# The apparatus consists of test cages (BRS/LVE) with a single lever and house-light. This is enclosed in a sound-attenuating chamber (BRS/LVE) with fan and the chambers are in an isolated room equipped with a speaker emitting a white-noise auditory background. The test cages have a grid floor of steel bars which are attached to a scrambled shock source (Coulbourn Instruments). The house-lights, shockers and response levers are controlled by BRS/LVE electromechanical timer and controls. The records of responses and shocks are recorded on Coulbourn print-out counters and Gerbrands cumulative recorders.
# The monkeys are trained to avoid an unsignaled shock by repetitive lever-pressing responses. A shock (1.0 mA for 0.5 seconds) is delivered to the grid floor every 20 seconds if no responses are made (shock-shock interval of 20 seconds: SS-20"). A lever-press (response) will delay the oncoming shock for 20 seconds (Response-Shock interval of 20 seconds: RS-20").
# Every 15 minutes the total number of shocks received and the total number of responses made are accumulated and constitute the basic data. The animals are trained until they maintain a stable response-rate and are receiving no more than 50 shocks per 4 hour test session. After reaching these criteria of performance, experimental compounds are administered and their effects on the performance of this learned avoidance behavior are evaluated.
# The drug's effect on performance of each animal is compared to the performance data generated in the previous non-drug session. Each animal thereby serves as its own control. The basic measures of performance during a specific time interval, responses and shocks, are used for evaluation. Responses are reported both as totals and as percent of control responses. Shocks are reported as totals and as shock-avoided (SHA) as percent of control. This latter measure is computed by subtracting the number of shocks received from the total number of possible shocks if no responses are made.
# However, an ED50 may be estimated during a representative time of peak activity.
# [4] = tested on: extrapyramidal symptomatology; settings: monkey, in vivo, po
# Protocol: Adult male squirrel monkeys (Saimiri sciurens) are housed in individual home cages and fed twice daily with water available "ad libitum" when they are not in the test chambers.
# On the test day, drugs are administered by oral intubation immediately prior to testing in volumes of 1.0 cc/kg of body weight. The compounds are dissolved in distilled water or suspended with the addition of one drop of Tween-80 per 10 cc of solution.
# After dosing, the monkeys are placed in observation chambers in an isolated room. Two experienced investigators observe the monkeys for dyskinetic symptomatology at 2, 4 and 6 hours postdose. They score the monkeys for the following specific dyskinetic symptomatology:
# Circling--when the monkey rapidly circles the cage floor
# "Duck walk"--when the monkey walks in a seated position with arms curled and held tightly to his side
# Limb extension--an abnormal, prolonged extension of one or more limbs, similar to but of longer duration than a stretching motion
# Pushing--the monkey will push against the cage wall with his head or body, frequently at the end of a circling episode
# Writhing--slow, writhing movements of the whole body frequently in conjunction with a pushing episode
# Oral dyskinesias--chewing, gnawing and abnormal tongue protrusions
# The following scoring index is used in order to quantify the severity of symptoms:
# [5] = tested on: spontaneous hypertensive rat; assay: antihypertensive activity in the spontaneous hypertensive rat, indirect tail cuff method; assay type: in vivo; settings: 50 mg/kg of body wt, intraperitoneal, 3 days, measured on third day, group of 4 rats
# Protocol: According to this procedure, the test compound is administered intraperitoneally to a group of 4 rats for 3 days. The decrease in blood pressure is measured on the third day of administration.
# [6] = squirrel monkeys, oral intubation immediately prior to testing, avoidance response, read-out: Antipsychotic Activity, Avoidance Response ED50
# [7] = squirrel monkeys, oral intubation immediately prior to testing, escape response, read-out: Antipsychotic Activity, Escape Response ED50
structure (smiles),measurement,setting,value
"COc1ccccc1N1CCN(CCCc2noc3cc(F)ccc23)CC1 [Example 1, 1-[3-(6-Fluoro-1,2-benzisoxazol-3-yl)propyl]-4-(2-methoxyphenyl)piperazine dihydrochloride]",ED50,"[1]; mice, subcutaneous",5.2 mg/kg
same,Antipsychotic Activity (% decrease in climbing score),[2]; dose 4.1 mg/kg of body wt,50%
same,ED50,[3]; [6],2.9 mg/kg
same,ED50,[3]; [7],4.8 mg/kg
same,ED50,"[3]; squirrel monkeys, oral, printed as dose with * in Table V, read-out: ED50 value in the Sidman Avoidance Paradigm in squirrel monkeys (footnote * to Table V)",3.5 mg/kg
same,% Monkeys showing extrapyramidal symptoms,[4]; 3.5 mg/kg,0%
same,% Monkeys showing extrapyramidal symptoms,[4]; 5 mg/kg,0%
same,% Monkeys showing extrapyramidal symptoms,[4]; 10 mg/kg,66%
"Cc1ccccc1N1CCN(CCCc2noc3cc(F)ccc23)CC1 [Example 6, 1-[3-(6-Fluoro-1,2-benzisoxazol-3-yl)propyl]-4-(2-methylphenylpiperazine oxalate]",Blood Pressure Decrease (mean arterial blood pressure),[5],33 mm/mercury
"Cl.Cl.Fc1ccc2c(CCCN3CCN(c4ccccn4)CC3)noc2c1 [Example 10, 1-[3-(6-Fluoro-1,2-benzisoxazol-3-yl)propyl]-4-(2-pyridyl)piperazine dihydrochloride]",ED50,"[1]; mice, subcutaneous",0.8 mg/kg
same,Blood Pressure Decrease (mean arterial blood pressure),[5],66 mm/mercury
same,Antipsychotic Activity (% decrease in climbing score),[2]; dose 10 mg/kg of body wt,31%
"N=C(N)NCCN1CCCCCCC1 [guanethidine, reference compound]",Blood Pressure Decrease (mean arterial blood pressure),[5],20 mm/mercury
"CC(C)=CCN1CCC2(C)c3cc(O)ccc3CC1C2C (centres unmarked) [pentazocine, reference compound]",ED50,[1],1.3 mg/kg
"Cl.Fc1ccc2c(CCCN3CCN(c4ccccc4Cl)CC3)noc2c1 [Example 4, 4-(2-Chlorophenyl)-1-[3-(6-fluoro-1,2-benzisoxazol-3-yl)propyl]piperazine hydrochloride]",Blood Pressure Decrease (mean arterial blood pressure),[5],55 mm/mercury
CSc1ccc2c(c1)N(CCC1CCCCN1C)c1ccccc1S2 (centres unmarked) [thioridazine],Antipsychotic Activity (% decrease in climbing score),[2]; dose 3.5 mg/kg of body wt,50%
same,ED50,[3]; [6],2.6 mg/kg
same,ED50,[3]; [7],3.5 mg/kg
same,% Monkeys showing extrapyramidal symptoms,[4]; 3.5 mg/kg,100%
same,% Monkeys showing extrapyramidal symptoms,[4]; 7 mg/kg,100%
"CCC(=O)O[C@](Cc1ccccc1)(c1ccccc1)[C@H](C)CN(C)C [propoxyphene, reference compound]",ED50,[1],3.9 mg/kg
"Fc1ccc(N2CCN(CCCc3noc4cc(F)ccc34)CC2)cc1.O=C(O)C(=O)O [Example 3, 1-[3-(6-Fluoro-1,2-benzisoxazol-3-yl)propyl]-4-(4-fluorophenyl)piperazine oxalate]",Blood Pressure Decrease (mean arterial blood pressure),[5],33 mm/mercury
O=C(CCCN1CCC(O)(c2ccc(Cl)cc2)CC1)c1ccc(F)cc1 [haloperidol],Antipsychotic Activity (% decrease in climbing score),[2]; dose 0.11 mg/kg of body wt,50%
same,ED50,"[3]; po, read-out: Antipsychotic Activity, Avoidance Response ED50",1.21 mg/kg
same,ED50,"[3]; po, read-out: Antipsychotic Activity, Escape Response ED50",1.27 mg/kg
same,ED50,"[3]; po, read-out: ED50 value in the Sidman Avoidance Paradigm in squirrel monkeys (footnote * to Table V)",1.3 mg/kg
same,% Monkeys showing extrapyramidal symptoms,[4]; 0.625 mg/kg,33%
same,% Monkeys showing extrapyramidal symptoms,[4]; 1.3 mg/kg,100%
"Fc1ccc2c(CCCN3CCN(c4ccccc4)CC3)noc2c1.O=C(O)C(=O)O [Example 2, 1-[3-(6-Fluoro-1,2-benzisoxazol-3-yl)propyl]-4-phenylpiperazine oxalate]",ED50,"[1]; mice, subcutaneous",1.8 mg/kg
same,Blood Pressure Decrease (mean arterial blood pressure),[5],38 mm/mercury
same,Antipsychotic Activity (% decrease in climbing score),[2]; dose 10 mg/kg of body wt,31%
"Cl.Fc1ccc2c(CCCN3CCN(c4cccc(C(F)(F)F)c4)CC3)noc2c1 [Example 5, 1-[3-(6-Fluoro-1,2-benzisoxazol-3-yl)propyl]-4-(3-trifluoromethylphenyl)piperazine hydrochloride]",Blood Pressure Decrease (mean arterial blood pressure),[5],66 mm/mercury
